Marks after values point to notes of the source that are not given here.
Test system: fundus of the stomach (gastric tone) in conscious dogs
Test: Gastric tone measured by an electronic barostat in conscious dogs
Assay type: in vivo, beagle dogs
Conditions: 1 hour observation period, constant pressure 6 mmHg
Source text: C. Pharmacological Examples C.1 Gastric Tone Measured by an Electronic Barostat in Conscious Dogs
Gastric tone cannot be measured by manometric methods. Therefore an electronic barostat was used. This allows the study of the physiological pattern and regulation of gastric tone in conscious dogs and the influence of test-compounds on this tone.
The barostat consists of an air injection system which is connected by a double-lumen 14-French polyvinyl tube to an ultrathin flaccid polyethylene bag (maximal volume: ±700 ml). Variations in gastric tone were measured by recording changes in the volume of air within an intragastric bag, maintained at a constant pressure. The barostat maintains a constant pressure (preselected) within a flaccid air-filled bag introduced into the stomach, changing the volume of air within the bag by an electronic feedback system.
Thus the barostat measures gastric motor activity (contraction or relaxation) as changes in intragastric volume (decrease or increase resp.) at a constant intragastric pressure. The barostat consists of a strain gauge linked by an electronic relay to an air injection-aspiration system. Both the strain gauge and the injection system are connected by means of double-lumen polyvinyl tube to an ultrathin polyethylene bag. A dial in the barostat allows selection of the pressure level to be maintained within the intragastric bag.
Female beagle dogs, weighing 7-17 kg, were trained to stand quietly in Pavlov frames. They were implanted with a gastric cannula under general anaesthesia and aseptic precautions. After a median laparotomy, an incision was made through the gastric wall in longitudinal direction between the greater and the lesser curve, 2 cm above the nerves of Latarjet. The cannula was secured to the gastric wall by means of a double purse string suture and brought out via a stub wound at the left quadrant of the hypochondrium. Dogs were allowed a recovery period of two weeks.
At the beginning of the experiment, the cannula was opened in order to remove any gastric juice or food remnants. If necessary, the stomach was cleansed with 40 to 50 ml lukewarm water. The ultrathin bag of the barostat was positioned into the fundus of the stomach through the gastric cannula. In order to ensure easy unfolding of the intragastric bag during the experiment, a volume of 300-400 ml was injected twice into the bag.
When during a stabilisation period of maximum 90 minutes, the gastric volume is stable during 15 minutes at a constant pressure of 6 mmHg (about 0.81 kPa), the test compound was administered subcutaneously (S.C.), or intraduodenally (I.D.). Test compounds were screened, i.e. changes in gastric volume were measured, usually at 0.63 mg/kg. […] Table C-1 summarizes the mean maximal change in volume on relaxation of the fundus, during the 1 hour observation period after S.C. or I.D. administration of the test compound (0.63 mg/kg).

[1] = S.C. administration, 0.63 mg/kg

Row | SMILES | Maximum change in volume (mean maximal change in volume on relaxation of the fundus) [1] [mL] | further results
1 | O=C1CN(CC(O)CNCC2COc3cccnc3O2)C(=O)N1 (centres unmarked) [Compound 13, 1-[3-[[(2,3-dihydro-1,4-dioxino[2,3-b]pyridin-3-yl)methyl]amino]-2-hydroxypropyl]-2,4-imidiazolidinedione] | – | Maximum change in volume (mean maximal change in volume on relaxation of the fundus) (I.D. administration, 0.63 mg/kg): 118 mL
2 | O=C1CCN(CCCNC[C@H]2COc3cccnc3O2)C(=O)N1 [Compound 25, (S)-1-[3-[[(2,3-dihydro[1,4]dioxino[2,3-b]pyridin-3-yl)methyl]amino]-propyl]dihydro-2,4(1H,3H)-pyrimidinedione] | – | Maximum change in volume (mean maximal change in volume on relaxation of the fundus) (I.D. administration, 0.04 mg/kg (footnote *)): 226* ml
3 | CC1(C)CNC(=O)N(CCCNCC2Oc3cccnc3O2)C1 (racemic) [Compound 10, (±)-1-[3-[(1,3-dioxolo[4,5-b]pyridin-2-ylmethyl)amino]-propyl]tetrahydro-5,5-dimethyl-2(1H)-pyrimidinone] | 31 | –
4 | O=C(O)C(=O)O.O=C1NCCCN1CCCNCC1CCc2cccnc2O1 (racemic) [Compound 9, (±)-1-[3-[[(3,4-dihydro-2H-pyrano[2,3-b]pyridin-2-yl)methyl]amino]propyl]tetrahydro-2(1H)-pyrimidinone ethanedioate (1:1)] | 78 | –
5 | O=C1NCCCN1CCCNCC1COc2cccnc2O1 (racemic) [Compound 1, (±)-1-[3-[[(2,3-dihydro-1,4-dioxino[2,3-b]pyridin-3-yl)methyl]amino]propyl]tetrahydro-2(1H)pyrimidinone] | 156 | –

Reference: patent US7423048B2, “Compounds for treating fundic disaccomodation” (Janssen Pharmaceutica, N.V., priority 2000, dated 2008)
